Literature values as cited in Sander's compilation of Henry's law constants.

Experiment: Henry solubility constant Hcp at 298.15 K (mol/(m3 Pa))
Settings: reference: Schüürmann (2000); cited value

Row | Compound | Henry solubility constant Hcp
1 | Clc1ccc(Cl)cc1 [1,4-dichlorobenzene] | 0.0041
2 | Cc1ccc(C)cc1 [1,4-dimethylbenzene] | 0.0013
3 | Cc1ccccc1O [1-hydroxy-2-methylbenzene] | 8.3
4 | Cc1ccc(O)cc1 [1-hydroxy-4-methylbenzene] | 13
5 | CC(=O)c1ccccc1 [1-phenylethanone] | 0.93
6 | O=Cc1ccccc1 [benzaldehyde] | 0.37
7 | c1ccccc1 [benzene] | 0.0018
8 | Sc1ccccc1 [benzenethiol] | 0.03
9 | Brc1ccccc1 [bromobenzene] | 0.004
10 | Clc1ccccc1 [chlorobenzene] | 0.0027
11 | COc1ccccc1 [methoxybenzene] | 0.069
12 | Cc1ccccc1 [methylbenzene] | 0.0015
13 | O=[N+]([O-])c1ccccc1 [nitrobenzene] | 0.41
